We go through 1 compound from article PMC2812605 (Biochemical pharmacology, 2009).

The experiment concerns the target T1, P2Y14 receptor (Rattus norvegicus, UniProt O35881).
T1 sequence (O35881 1-305): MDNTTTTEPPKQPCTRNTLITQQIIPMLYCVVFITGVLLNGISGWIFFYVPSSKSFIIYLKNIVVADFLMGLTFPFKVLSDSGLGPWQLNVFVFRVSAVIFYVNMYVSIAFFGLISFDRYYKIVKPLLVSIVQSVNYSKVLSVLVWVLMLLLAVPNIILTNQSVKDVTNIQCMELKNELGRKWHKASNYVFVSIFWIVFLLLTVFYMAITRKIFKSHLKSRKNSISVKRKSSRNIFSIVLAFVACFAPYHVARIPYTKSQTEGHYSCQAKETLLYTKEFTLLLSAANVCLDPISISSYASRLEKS
Description: agonist-stimulated […]GTPγS binding to RBL-2H3 membranes. The format is biochemical. In general terms: GTPγS is a poorly hydrolysed GTP analogue; its binding reports G protein activation.

The term EC50 denotes the concentration giving half of the maximal effect. Read a low EC50 as greater potency. For the compound `O=c1ccn([C@@H]2O[C@H](COP(=O)(O)OP(=O)(O)O[C@H]3O[C@H](CO)[C@@H](O)[C@H](O)[C@H]3O)[C@@H](O)[C@H]2O)c(=S)[nH]1` [MRS2690, diphosphoric acid 1-α-D-glucopyranosyl ester 2-(2-thiouridin-5’’-yl) ester], a half-maximal effect (EC50) was put at 8.1 ± 1.6 nM.
